These results are taken from patent US20100196376A1, “METHOD FOR REDUCING ALLERGEN-INDUCED AIRWAY HYPERRESPONSIVENESS” (National Jewish Health, priority 2001, published 2010).

Type in all cases: in vivo, mouse (BALB/c)
The subject of experiment [1] is ovalbumin-sensitized and challenged mice (airway hyperresponsiveness to methacholine). Briefly: Airway function: change in lung resistance (RL) and dynamic compliance (Cdyn) after aerosolized methacholine, ovalbumin-sensitized and challenged mice.
Protocol: (§1) Mice (8/group/experiment) were sensitized by intraperitoneal injection of 20 μg of ovalbumin (Grade V, Sigma) emulsified in 2.25 mg alum (Alum® Inject; Pierce, Rockford, Ill.) in a total volume of 100 μl on days 0 and 14. On days 28, 29 and 30, mice were challenged via the airways by a 20-minute inhalation exposure to aerosols of ovalbumin (1% in saline) obtained from a DeVilbiss ultrasonic nebulizer (particle size 1-5 μm). Age-matched, control animal groups (8/group/experiment) consisted of mice injected with alum alone (non-sensitized) and exposed either to aerosols of saline or to aerosolized ovalbumin, and mice sensitized to ovalbumin but subsequently exposed to aerosols of saline.
Briefly, mice were sensitized and challenged to ovalbumin as described in Example 1. Airway function was assessed in vivo in anesthetized, mechanically ventilated mice as previously described (see, for example, Takeda et al., 1997, J. Exp. Med. 186, 449-454) by measuring changes in lung resistance (RL) and dynamic compliance (Cdyn) in response to intratracheal challenge with aerosolized methacholine at doses of 1.56, 3.125, 6.25 and 12.5 mg/ml in saline. Baseline values were recorded from data obtained after intra-tracheal challenge with aerosolized saline. The data are presented in percent of change from baseline RL, and Cdyn.
Experiment [2] deals with ovalbumin-sensitized and challenged mice (BAL eosinophils). In words: Bronchoalveolar lavage (BAL) differential cell counts, ovalbumin-sensitized and challenged mice. Particulars: i.p. 2 h prior to each allergen challenge; CGRP 20 μg/kg, CGRP fragment 8-37 100 μg/kg (FIG. 3C).
Protocol: as §1
Following assessment of airway function, the lungs were lavaged once with 1 ml of sterile Hank's balanced salt solution (HBSS) pre-warmed at 37° C. The recovered BAL fluids were placed in Eppendorf tubes and were centrifuged at 4° C. for 5 min at 1,500 rpm. The obtained cell pellets were resuspended in 200 μl of sterile phosphate-buffered saline (PBS) and total cell numbers were determined from counting of crystal violet-stained aliquots using a hemacytometer. Differential cell counts were determined from cytospin preparations stained with Leukostat (Fisher Diagnostics, Pittsburgh, Pa.). At least 200 cells were counted from each slide in a blinded fashion.
Experiment [3] deals with ovalbumin-sensitized and challenged mice (tissue infiltrating eosinophils). In words: Tissue infiltrating eosinophils, MBP immunoperoxidase and morphometric analysis of lung sections. Particulars: i.p. 2 h prior to each allergen challenge; CGRP 20 μg/kg, CGRP fragment 8-37 100 μg/kg (FIG. 3D).
Protocol: For histology and immunohistochemistry, the lungs of the mice were inflated and fixed with 4% paraformaldehyde in PBS for 24 h at 4° C. followed by processing into paraffin. Five μm-thick sections were cut from the paraffin blocks, deparaffinized and stained with hematoxylin and eosin for routine histology.
The pan neuronal marker PGP9.5, CGRP and tissue eosinophils were detected by immunoperoxidase. Unless otherwise stated, all incubations were carried out at room temperature. All washes were performed with TBS (50 mM TRIS-buffered saline pH 7.6) 3 times for 5 min. Endogenous peroxidase was blocked by incubation of tissue sections with H2O2 (0.3% in methanol) for 30 minutes. […]
For tissue eosinophils, the sections were pretreated for 5 min with 0.01% trypsin in TBS to retrieve antigens. […] CGRP was detected with a polyclonal rabbit anti-CGRP antibody (Biogenesis) diluted 1:200. […]
The data of immunohistochemistry were quantitatively analyzed (morphometric analysis) on a G-3 Macintosh computer using the National Institutes of Health (NIH) Scion Image analysis software. […]
The number of tissue infiltrating eosinophils was determined by counting all MBP-positive cells present in the airway wall including the adventitia. When eosinophils were present in tissue areas connecting blood vessels to adjacent airways only 50% of these cells were counted for these airways. […]

Regarding “CGRP(8-37): highly selective CGRP receptor antagonist, human synthetic CGRP (fragment 8-37), from Sigma”, in experiment [1] (CGRP i.p. after allergen challenge period, animals pretreated with CGRP(8-37) (FIGS. 4A, 4B)), the “Inhibitory effect of CGRP on AHR after pretreatment with the receptor antagonist” value is given as “totally neutralized”. Further, the “AHR in sensitized mice” value in experiment [1] (administration after the period of allergen challenge, CGRP i.p. at 2 h prior to assessment of airway function (FIGS. 4A, 4B)) is “did not alter”. Further, in experiment [1] (i.p. 2 h prior to each allergen challenge, CGRP 20 μg/kg, CGRP fragment 8-37 100 μg/kg (FIGS. 3A, 3B)), the “Extent / development of AHR” value is “did not produce any significant change”. The “Numbers of BAL eosinophils” value in experiment [2] is “no significant effect”. In addition, the “Numbers of tissue infiltrating eosinophils” value in experiment [3] was “no significant effect”.
